Results on 2 compounds are retold here after patent US7538129B2, “Diazonamide A analog” (Board of Regents, The University of Texas System, priority 2005, dated 2009).

The subject of one assay is MDA-MB-231. Kind of assay: growth inhibition (GI50) of tumor cell lines. It is filed as cell-based. To be noted: MDA-MB-231, FIG. 1. The method, then:
A number of tumor cell lines representing breast, lung, colon, ovarian and prostate cancer as well as melanoma were assayed under standard growth conditions in presence of varying amounts of diazonamide A, a hydroxylated form of Compound J, Compound J, paclitaxel and vinblastine. The results are graphed as the concentration that diminishes growth by a factor of two (GI50) in FIG. 1.

Assay [1] has as its system MDA-MB-435 (breast) xenografts. Briefly: growth inhibition of MDA-MB-435 xenografts. It is filed as in vivo, mice. The settings on record: 0.7 mg/kg, IP.
A further assay has as its system HCT116 xenografts. Kind of assay: growth inhibition of HCT116 xenografts. It is filed as in vivo, mice. The settings on record: HCT116 (colon), 0.45 mg/kg, IP. The procedure: Details of the preparation of murine models containing xenografts of HCT116 cells or PC-3 cells are described in the section following these examples. After the tumors were grown, therapy utilizing Compound J or paclitaxel was initiated. […] In FIG. 4A, the *'s represent control mice, the squares represent 5 mg/kg Compound J; the diamonds represent 20 mg/kg Compound J; and the slanted line represents 20 mg/kg paclitaxel.
The details of the protocol for Examples 19 and 20 are as follows:
• PC3 prostrate tumor cells and HCT116 colon tumor cells (acquired from the tumor repository Division of Cancer Treatment and Diagnosis (DCTD) of the NCI • Complete RPMI Media • RPMI (Cat# 11875-085, Invitrogen) • 10% Heat-inactivated (30′ 56° C.) Fetal Bovine Serum (Cat# 100-106, Gemini Bio-Products • 2 mM L-glutamine (Cat# 25030-081, Invitrogen) • 0.1 mM MEM Non-Essential Amino Acids Solution (Cat#11140-050, Invitrogen) • 10 U/ml Penicillin/10 μg/ml Streptomycin (Cat#15140-122, Invitrogen) • 1 mM Sodium Pyruvate (Cat#l 1360-070) • Trypsin-EDTA (Cat#25300-054, Invitrogen) • Ca^2+/Mg^2+-free Phosphate Buffered Saline, 5% dextrose in water • Cell Culture Dish 150 mm×25 mm (Cat# 430599, Coming, Inc.) • 10 and 25 ml pipets, standard pipet-aid, p200 and p1000 pipette tips and standard pipetmen • Athymic NCr-nu/nu nude mice at 6-12 weeks of age, either sex (Strain code: 01B74, NCI Frederick Animal Production Program—suppliers include Charles River Labs and Taconic Farms). Female mice of approximately 7 weeks of age were utilized for existing experiments. • Standard 1 cc tuberculin syringe, 30G½ and 25G⅝ needles (Becton Dickinson) • Falcon 5 ml tubes (Cat#352054) • 50 and 15 ml disposable plastic conical tubes (Falcon or similar vendor) • Trypan Blue Solution (0.4%) (Cat#T8154, Sigma) • Hausser phase contrast hemacytometer (Cat# 02-671-54, Fisher) • Ice bucket • Balance for weighing mice (accurate to 0.2 g) • Vernier calipers • Vivarium facility free from known pathogens (nude mice should be housed in isolation from conventional mice if possible—separate rooms or micro-isolator cages equipped with individual air flow; all animal housing, bedding, water should be autoclaved prior to use; standard irradiated mouse chow should be used; animals should be changed out of cages within laminar flow hood; investigators handling mice should be suitably garbed—disposable gown, bonnet, booties, gloves, mask) • AB-5 (Compound J) compound • Ethyl alcohol, 200 proof (Aaper, MFD 041205) • Cremaphor (Cat# C5135, Sigma) • Paclitaxel (Cat#ANP0010, Polymed Therapeutics) Procedure: • 1) Rapidly thaw PC3 or HCT116 cells (if necessary) in 37° C. water bath. Transfer contents to 9ml complete RPMI media. Spin 5′ at 1200 rpm (240 Xg). Discard media and resuspend pellet in 8 ml complete RPMI media. Plate in 100 mm×25 mm cell culture dish in 5% CO2, 37° C. humidified incubator. • 2) Allow to grow for 5-10 days, splitting (aspirate media, wash with 3-5 ml PBS, add 1 ml trypsin-EDTA, incubate 3-5′ at 37° C., add media to desired volume and transfer to multiple plates) 1:8 to 1:10 every 3-4 days as necessary to allow cells to enter phase of logarithmic growth. • 3) When cells are growing well, begin to expand to 150 mm×25 mm dishes. We use 20 ml of media in a 150 mm dish and use 2 ml of trypsin for splitting. When nearly confluent, there should be 2×10^7 cells/150 mm dish. • 4) Plan ahead to time arrival of nu/nu mice such that they can acclimate to animal facility for 1 week prior to injection of tumor cells. […] Plan to inject 10 million cells/mouse and allow for loss of cells/volume during injection process. That is, if 30 mice are to be injected, plan to harvest cells sufficient for at least 35 injections—35×10 million cells=3.5×10^8 cells. In the existing HCT116 experiment, 7.5×10^6 cells were injected per mouse. Five mice per group were utilized for AB-5 treatment and four mice per group were utilized for the control and paclitaxel treatments. […]

As for `CC(C)[C@H](O)C(=O)N[C@H]1Cc2ccc3c(c2)[C@]24C5=C(N=C(O5)[C@H](C(C)C)NC1=O)c1nc(Cl)c(o1)-c1c(Cl)[nH]c5cccc(c15)-c1cccc2c1N[C@@H]4O3` [diazonamide A], in the assay with MDA-MB-231, the “GI50 (concentration that diminishes growth by a factor of two)” value was “more effective than the remaining drugs”.
For the compound `CC[C@]1(O)C[C@@H]2CN(CCc3c([nH]c4ccccc34)[C@@](C(=O)OC)(c3cc4c(cc3OC)N(C)[C@H]3[C@@](O)(C(=O)OC)[C@H](OC(C)=O)[C@]5(CC)C=CCN6CC[C@]43[C@@H]65)C2)C1` [vinblastine, reference compound], the “#Tumor Free (day)” value in assay [1] was 0/6. Besides, the “GI50 (concentration that diminishes growth by a factor of two)” value in the assay on MDA-MB-231 is on record as “more effective than the remaining drugs”. Further, in the assay with HCT116 xenografts, the “#Tumor Free (day)” value is reported as 0/5, the “% Max T/C” value came to 56.0% and the “Log10 Tumor Cell Kill” value came out at 0.2.
